For the assay, the target named is T1, rat I7 olfactory receptor (OR-I7) (Rattus norvegicus, UniProt P23270).
T1 sequence (P23270 1-327): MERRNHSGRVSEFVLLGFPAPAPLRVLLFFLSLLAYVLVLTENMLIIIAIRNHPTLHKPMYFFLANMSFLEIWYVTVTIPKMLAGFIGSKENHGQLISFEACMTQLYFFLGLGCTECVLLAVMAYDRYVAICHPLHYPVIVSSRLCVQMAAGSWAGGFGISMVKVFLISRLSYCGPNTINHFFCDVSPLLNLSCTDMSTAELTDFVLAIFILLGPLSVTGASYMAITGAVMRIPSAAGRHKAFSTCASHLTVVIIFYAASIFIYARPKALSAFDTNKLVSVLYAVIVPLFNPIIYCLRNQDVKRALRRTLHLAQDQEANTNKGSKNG
Type of assay: cell-based.
In the case of `CCCCCCCCC=O` [nonanal], the EC50 (as a rule, the concentration at which the effect is half-maximal) amounted to 4.4 ± 0.4 µM.
Then `CCCCCCCCCC=O` [decanal], with 16 ± 1.7 µM; and `CCCCCCCCCCC=O` [undecanal], with 446 ± 16 µM.

The values above are taken from article PMC2912408 (Biochemistry, 2010).
